For orientation: IC50 means the point on the concentration scale where inhibition reaches its midpoint.

This passage reports IC50 results from patent US12581252B2, “Substituted pyrrolo[3,4-b]pyridines as PI3K-α inhibitors” (Relay Therapeutics, Inc., priority 2020, dated 2026).

The structures appear in SMILES notation.

The target in the experiment is H1047R PIK3CA enzyme (Homo sapiens, UniProt P42336, H1047R). Kind of experiment: ADP-Glo Biochemical PIK3CA Kinase Assay. In general terms: In ADP-Glo the light output rises with the ADP produced.
Chain of H1047R PIK3CA enzyme (P42336 whole entry H1047R): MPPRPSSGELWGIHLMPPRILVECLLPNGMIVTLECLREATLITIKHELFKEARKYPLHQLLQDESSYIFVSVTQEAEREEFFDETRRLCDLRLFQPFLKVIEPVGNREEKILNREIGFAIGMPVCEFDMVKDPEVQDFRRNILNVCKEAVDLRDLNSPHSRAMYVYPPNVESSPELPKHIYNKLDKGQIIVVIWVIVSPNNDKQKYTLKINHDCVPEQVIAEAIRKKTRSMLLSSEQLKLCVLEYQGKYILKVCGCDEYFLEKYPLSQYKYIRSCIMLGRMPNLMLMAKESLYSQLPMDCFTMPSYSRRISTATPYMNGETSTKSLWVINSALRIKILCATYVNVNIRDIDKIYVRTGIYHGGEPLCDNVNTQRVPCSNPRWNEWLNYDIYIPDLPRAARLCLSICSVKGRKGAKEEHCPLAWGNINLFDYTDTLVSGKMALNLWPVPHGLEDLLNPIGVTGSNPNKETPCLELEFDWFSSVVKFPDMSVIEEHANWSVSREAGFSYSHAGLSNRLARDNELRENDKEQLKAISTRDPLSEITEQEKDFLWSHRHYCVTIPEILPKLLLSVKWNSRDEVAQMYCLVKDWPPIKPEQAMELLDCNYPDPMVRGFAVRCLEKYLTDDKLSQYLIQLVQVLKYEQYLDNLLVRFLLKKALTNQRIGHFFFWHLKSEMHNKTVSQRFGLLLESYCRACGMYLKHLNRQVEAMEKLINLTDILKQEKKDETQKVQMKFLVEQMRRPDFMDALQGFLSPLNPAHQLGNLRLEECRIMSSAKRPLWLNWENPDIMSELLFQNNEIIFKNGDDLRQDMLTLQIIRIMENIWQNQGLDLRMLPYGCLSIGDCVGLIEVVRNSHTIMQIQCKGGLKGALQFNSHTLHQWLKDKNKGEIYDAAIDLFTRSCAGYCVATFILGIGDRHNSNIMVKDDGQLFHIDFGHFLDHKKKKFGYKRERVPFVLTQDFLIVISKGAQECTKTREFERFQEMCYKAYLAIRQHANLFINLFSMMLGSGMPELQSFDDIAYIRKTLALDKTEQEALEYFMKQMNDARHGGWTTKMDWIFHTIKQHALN
Chain of H1047R PIK3CA enzyme (P27986 whole entry partner): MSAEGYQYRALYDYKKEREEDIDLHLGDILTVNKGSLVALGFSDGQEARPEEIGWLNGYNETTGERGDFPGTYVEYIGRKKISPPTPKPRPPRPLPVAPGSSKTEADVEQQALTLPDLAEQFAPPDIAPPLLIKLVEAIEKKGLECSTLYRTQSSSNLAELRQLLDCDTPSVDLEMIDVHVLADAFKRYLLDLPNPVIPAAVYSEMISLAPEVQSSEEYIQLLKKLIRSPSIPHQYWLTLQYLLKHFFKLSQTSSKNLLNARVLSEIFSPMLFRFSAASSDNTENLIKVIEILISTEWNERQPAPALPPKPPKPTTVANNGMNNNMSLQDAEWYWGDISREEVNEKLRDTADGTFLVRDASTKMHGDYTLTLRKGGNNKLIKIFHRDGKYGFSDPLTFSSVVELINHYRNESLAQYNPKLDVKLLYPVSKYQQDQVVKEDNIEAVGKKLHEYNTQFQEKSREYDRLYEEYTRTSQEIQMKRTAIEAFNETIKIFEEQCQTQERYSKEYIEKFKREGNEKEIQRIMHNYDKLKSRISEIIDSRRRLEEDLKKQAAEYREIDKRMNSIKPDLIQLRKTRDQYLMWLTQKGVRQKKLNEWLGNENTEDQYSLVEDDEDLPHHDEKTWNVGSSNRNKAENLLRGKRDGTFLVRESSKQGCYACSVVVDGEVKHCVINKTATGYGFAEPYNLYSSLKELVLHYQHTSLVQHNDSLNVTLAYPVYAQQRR
In the case of `O=C(Nc1cc(-c2cc(F)n3ncnc3c2)cc2c1[C@@H](c1cc(F)ccc1Cl)NC2=O)c1cc(F)cc(C(F)(F)F)c1` [Compound I-1926], the IC50 was in the range of 1 to 10 µM.

With `O=C(Nc1cc(-c2cc(F)n3ncnc3c2)cc2c1[C@H](c1cc(F)ccc1Cl)NC2=O)c1cc(F)cc(C(F)(F)F)c1` [Compound I-1927], the IC50 is ≤ 0.1 µM.

`O=C(Nc1cc(-c2ccc3nc(C(F)F)cn3c2)cc2c1[C@@H](c1cc(F)ccc1Cl)NC2=O)c1cc(F)cc(C(F)(F)F)c1` [Compound I-1928] showed an IC50 of 1 to 10 µM.

Turning to `O=C(Nc1cc(-c2ccc3nc(C(F)F)cn3c2)cc2c1[C@H](c1cc(F)ccc1Cl)NC2=O)c1cc(F)cc(C(F)(F)F)c1` [Compound I-1929], the IC50 is ≤ 0.1 µM.

The compound `O=C(Nc1cc(-c2ccc(C(F)F)nc2)cc2c1C(c1cc(F)ccc1Cl)NC2=O)c1cc(F)cc(C(F)(F)F)c1` (stereo not drawn) [Compound I-1932] gave an IC50 of 0.1 to 0.5 µM.

In the case of `O=C(Nc1cc(-c2ccnc(C(F)F)c2)cc2c1C(c1cc(F)ccc1Cl)NC2=O)c1cc(F)cc(C(F)(F)F)c1` (stereo not drawn) [Compound I-1933], the IC50 is ≤ 0.1 µM.

For the compound `O=C(Nc1cc(-c2cnc3ncc(Cl)n3c2)cc2c1C(c1cc(F)ccc1Cl)NC2=O)c1cc(F)cc(C(F)(F)F)c1` (stereo not drawn) [Compound I-1934], the IC50 is ≤ 0.1 µM.

`O=C(Nc1cc(-c2ccc3ncc(C(F)F)n3c2)cc2c1[C@@H](c1cc(F)ccc1Cl)NC2=O)c1cc(F)cc(C(F)(F)F)c1` [Compound I-1936] showed an IC50 of 0.5 to 1 µM.

For the compound `O=C(Nc1cc(-c2ccc3ncc(C(F)F)n3c2)cc2c1[C@H](c1cc(F)ccc1Cl)NC2=O)c1cc(F)cc(C(F)(F)F)c1` [Compound I-1937], the IC50 was ≤ 0.1 µM.

`O=C(Nc1cc(-c2ccc3nc(C(F)F)nn3c2)cc2c1C(c1cc(F)ccc1Cl)NC2=O)c1cc(F)cc(C(F)(F)F)c1` (stereo not drawn) [Compound I-1938]: the IC50 was ≤ 0.1 µM.

`O=C1NC(c2cc(F)ccc2Cl)c2c(NC(=O)C3OCCc4ccccc43)cc(-c3ccc4ncnn4c3)cc21` (stereo not drawn) [Compound I-1939] came in with an IC50 of 1 to 10 µM.

`C[S+]([O-])c1cc(-c2ccc3ncnn3c2)cc2c1C(c1cc(F)ccc1Cl)NC2=O` (stereo not drawn) [Compound I-1940] displayed a 50% inhibitory concentration (IC50) of 10 to 100 µM.

Consider `CS(=O)(=O)c1cc(-c2ccc3ncnn3c2)cc2c1C(c1cc(F)ccc1Cl)NC2=O` (stereo not drawn) [Compound I-1941], for which the IC50 fell in the range of 10 to 100 µM.

For `O=C1NC(c2cc(F)ccc2Cl)c2c1cccc2-c1nc2c(F)cc(C(F)(F)F)cc2[nH]1` (stereo not drawn) [Compound I-1944], the IC50 was ≤ 0.1 µM.

Regarding `NCc1cc(-c2ccc3ncnn3c2)cc2c1C(c1cc(F)ccc1Cl)NC2=O` (stereo not drawn) [Compound I-1950], the IC50 is 10 to 100 µM.

For the compound `CN1C(=O)NC(c2cc(F)ccc2Cl)c2c(NC(=O)c3cc(F)cc(C(F)(F)F)c3)cccc21` (stereo not drawn) [Compound I-1951], the IC50 lay within 1 to 10 µM.

Turning to `CN1CCN(c2cc(-c3ccc4ncnn4c3)cc3c2C(c2cc(F)ccc2Cl)NC3=O)CC1` (stereo not drawn) [Compound I-1952], the IC50 lay in the range of 10 to 100 µM.

The compound `O=C(Nc1cc(Br)cc2c1C(c1cc(F)ccc1Cl)NC2=O)NC1(CC(F)(F)F)CCOCC1` (stereo not drawn) [Compound I-1953] returned an IC50 of 10 to 100 µM.

Regarding `O=C1NC(c2cc(F)ccc2Cl)c2c(NC(=O)N3CC4CC4(F)C3)cc(Br)cc21` (stereo not drawn) [Compound I-1954], the IC50 lay in the range of 10 to 100 µM.

`O=C1NC(c2cc(F)ccc2Cl)c2c(OCc3ccccc3)cc(-c3ccc4ncnn4c3)cc21` (stereo not drawn) [Compound I-1955] yielded an IC50 of 10 to 100 µM.

Regarding `O=C1NC(c2cc(F)ccc2Cl)c2c(NC(=O)C3CCCC(F)C3)cc(-c3ccc4ncnn4c3)cc21` (stereo not drawn) [Compound I-1957], the half-maximal inhibitory concentration (IC50) was in the range of 1 to 10 µM.

Compound `O=C1NC(c2cc(F)ccc2Cl)c2c(NC3CNCc4ccccc43)cc(-c3ccc4ncnn4c3)cc21` (stereo not drawn) [Compound I-1959] came in with an IC50 of 1 to 10 µM.

Turning to `O=C(CC1CCCC(O)C1)Nc1cc(-c2ccc3ncnn3c2)cc2c1C(c1cc(F)ccc1Cl)NC2=O` (stereo not drawn) [Compound I-1960], the half-maximal inhibitory concentration (IC50) was in the range of 10 to 100 µM.

`Cc1ccccc1C1NCCc2cccc(NC(=O)c3cc(F)cc(C(F)(F)F)c3)c21` (stereo not drawn) [Compound I-1962] registered an IC50 of 10 to 100 µM.
